# According to patent US20090227540A1, “TREATMENT OF WOOD BASED ON NOVEL FORMULATIONS OF BORATRANES” (priority 2005, published 2009):
# Where two headings read alike, the source gives them in different places.
# What was measured:
# P. tephropora = settings: Humphrey et al; cited from earlier work
# G. abietinum = settings: Humphrey et al; cited from earlier work
# Coniophora puteana = assay: decay of treated, leached radiata pine blocks (AWPA protocol); format: cell-based
# Description: (§1) A more rigorous examination of the potential synergism of was carried out on leached wood blocks. Radiata pine blocks were cut to size (20×20×20 mm) and labeled according to treatment level. The blocks were then vacuum impregnated at
# (§2) −95 kpa with the various treatments as specified in table 16. The aqueous or alcoholic carrier solvents were then allowed to air dry for a period of 5 days. The blocks were then subjected to leaching and biological attack in accordance with the AWPA's “Proctocols for assessment of Wood Preservatives.” The fungal species used were Tyromyces palustris, Coniophora puteana and Fomitopsis lilacino-gilva.
# (§3) inhibition of growth by fungicide B at retention q. E is the expected additive inhibition of the two fungicides. If a greater inhibition occurs with the combined treatment than the two fungicides acting alone synergism is defined to be present.
# [1] = test system: Fomitopsis lilacino-gilva; assay: as above; format: cell-based
# Description: as §1, §2, §3
# Tyromyces palustris [2] = assay: as above; format: cell-based
# Description: as §1, §2, §3
# Antroda xantha = assay: malt agar plate growth inhibition, end point/MIC and Kull synergy; format: cell-based
# Description: (§4) To this end an alcoholic aqueous solutions of decyl boratrane and didecyldimethyl ammonium chloride were prepared separately and in combination in a ratio of 3:1 Serial dilutions of the formulations of the respective fungicides and fungicide mixture were added to 3 replicate plates of malt agar under aseptic conditions. Three replicate control plates without fungicide were similarly prepared.
# (§5) Onto each plate was placed 6 fungal inoculum squares measuring approximately 5×5 mm. […] The plates were then rated for growth inhibition and the results recorded.
# (§6) The absence or presence of synergism may be calculated by the method of F. C. Kull et al., Applied Microbiology, Vol 9, (1961) p 538 et seq. The synergistic index (S.I.) is calculated according to the following formula.
# (§7) In the present context the parameters in the formula have the following meaning:
# (§8) Qa=The concentration of compound decyl isopropanolamine boratrane (compound A) in mixture which produces and end point. Qb=The concentration of compound didecyldimethyl ammonium chloride (compound B) in mixture which produces and end point. QA=The concentration of compound decyl isopropanolamine boratrane (compound A) alone which produces and end point. QB=The concentration of compound didecyldimethyl ammonium chloride (compound B) alone which produces and end point. QC=The concentration of the mixture of didecyldimethyl ammonium chloride and decyl isopropanolamine boratrane (compounds A+B) which together produces and end point.
# (§9) If the synergistic index is above 1, this means that antagonism is present. If the synergistic index equals 1, this means that an additive effect of the two biocides exist. If the synergistic index is less than 1, this means that synergism of the two biocides exist.
# (§10) To this end an alcoholic aqueous solution of decyl boratrane and didecyldimethyl ammonium chloride was formulated in a ratio of 3:1. In a separate formulation a micro-emulsion of triadimefon was prepared. Serial dilutions of the formulations of the respective fungicides were added to 3 replicate plates of malt agar under aseptic conditions and tested for synergism under the same conditions as example 7 at ratios of 10:1 and 20:1 boratrane didecyldimethyl ammonium chloride mixture to 1 of triadimefon.
# (§11) The synergy experiment in Example 8 was repeated at two additional ratios of 5:1 and 50:1. The results are sumarised in tables 14 and 15.
# [3] = test system: Fomitopsis lilacino-gilva; assay: as above; format: cell-based
# Description: as §4, §5, §6, §7, §8, §9, §10, §11
# Pycnoporus coccineus = assay: as above; format: cell-based
# Description: as §4, §5, §6, §7, §8, §9, §10, §11
# Trametes versicolor = assay: as above; format: cell-based
# Description: as §4, §5, §6, §7, §8, §9, §10, §11
# Tyromyces palustris [4] = assay: as above; format: cell-based
# Description: as §4, §5, §6, §7, §8, §9, §10, §11
# [5] = cited from earlier work
# [6] = Ex 8, A=DIPB DDAC 3:1, B=triadimefon
# [7] = Ex 9 repeat, A=DIPB DDAC 3:1, B=triadimefon
# [8] = Ex 7, Table 5 prints no unit (ppm in Tables 1-4)
compound,measurement,setting,value
CCCC[N+](CCCC)(CCCC)CCCC.c1ccc2c(c1)CO[B-]1(OCc3ccccc3O1)O2,inhibition of the fungi,P. tephropora,complete inhibition
same,inhibition of the fungi,G. abietinum,complete inhibition
alkyldimethyl benzyl ammonium chloride [Benzalkonium Chloride 50%],Mass loss %,Coniophora puteana; retention ADBAC 0.16% w,60.59%
same,Mass loss %,Coniophora puteana; retention ADBAC 0.33% w,48.9%
same,Mass loss %,Coniophora puteana; retention ADBAC 0.66% w,39.16%
same,Mass loss %,Coniophora puteana; retention ADBAC 1.33% w,17.72%
same,Mass loss %,[1]; retention ADBAC 0.16% w,30.66%
same,Mass loss %,[1]; retention ADBAC 0.33% w,29.44%
same,Mass loss %,[1]; retention ADBAC 0.66% w,27.92%
same,Mass loss %,[1]; retention ADBAC 1.33% w,4.27%
same,Mass loss %,Tyromyces palustris [2]; retention ADBAC 0.16% w,21.68%
same,Mass loss %,Tyromyces palustris [2]; retention ADBAC 0.33% w,25.03%
same,Mass loss %,Tyromyces palustris [2]; retention ADBAC 0.66% w,23.72%
same,Mass loss %,Tyromyces palustris [2]; retention ADBAC 1.33% w,12.61%
CC(C)(C)C(=O)C(Oc1ccc(Cl)cc1)n1cncn1 (stereo not drawn) [Triadimefon],"QB end point concentration, B alone",Antroda xantha; [6],4
same,MIC,"Antroda xantha; Ex 8, read-out: MIC",4 µg/mL
same,"QB end point concentration, B alone",Antroda xantha; [7],4
same,"QB end point concentration, B alone",[3]; [6],4
same,MIC,"[3]; Ex 8, read-out: MIC",4 µg/mL
same,"QB end point concentration, B alone",[3]; [7],8
same,"QB end point concentration, B alone",Pycnoporus coccineus; [6],128
same,"QB end point concentration, B alone",Pycnoporus coccineus; [7],0.5
same,MIC,"Pycnoporus coccineus; Trametes coccinea, Ex 8, read-out: MIC",4 µg/mL
same,"QB end point concentration, B alone",Trametes versicolor; [6],4
same,"QB end point concentration, B alone",Trametes versicolor; [7],4
same,MIC,"Trametes versicolor; Trametes versicolor, Ex 8, read-out: MIC",128 µg/mL
same,"QB end point concentration, B alone",Tyromyces palustris [4]; [6],32
same,MIC,"Tyromyces palustris [4]; Ex 8, read-out: MIC",32 µg/mL
same,"QB end point concentration, B alone",Tyromyces palustris [4]; [7],16
"CCCCCCCCCC[N+](C)(C)CCCCCCCCCC.[Cl-] [DDAC, didecyldimethyl ammonium chloride]",MIC,Antroda xantha,256 µg/mL
same,"QB end point concentration, B alone","Antroda xantha; Ex 7, A=DIPB, B=DDAC",256
same,MIC,[3],256 µg/mL
same,"QB end point concentration, B alone","[3]; Ex 7, A=DIPB, B=DDAC",256
same,"QB end point concentration, B alone","Pycnoporus coccineus; Ex 7, A=DIPB, B=DDAC",2048
same,MIC,Pycnoporus coccineus; [8],2048
same,"QB end point concentration, B alone","Trametes versicolor; Ex 7, A=DIPB, B=DDAC",2048
same,MIC,Trametes versicolor; Trametes versicolor,> 1020 µg/mL
same,MIC,Tyromyces palustris [4],1020 µg/mL
same,"QB end point concentration, B alone","Tyromyces palustris [4]; Ex 7, A=DIPB, B=DDAC",1024
OB(O)O [Boric acid],Mass loss %,Coniophora puteana; retention Boric acid 0.4% w,47.37%
same,Mass loss %,Coniophora puteana; retention Boric acid 0.8% w,43.4%
same,Mass loss %,[1]; retention Boric acid 0.4% w,32.91%
same,Mass loss %,[1]; retention Boric acid 0.8% w,30.6%
same,Mass loss %,Tyromyces palustris [2]; retention Boric acid 0.4% w,23.66%
same,Mass loss %,Tyromyces palustris [2]; retention Boric acid 0.8% w,24.67%
"CCCCCCCCCCC1C[N+]23CC(C)O[B-]2(OC(C)C3)O1 (stereo not drawn) [DIPB, 3,7-dimethyl-10-decyl-2,8,9-trioxa-5-aza-1-boratricyclo-[3.3.3.0]-undecane]",MIC,Antroda xantha; Ex 7,256 ppm
same,"QA end point concentration, A alone","Antroda xantha; Ex 7, A=DIPB, B=DDAC",256
same,MIC,[3]; Ex 7,2048 ppm
same,"QA end point concentration, A alone","[3]; Ex 7, A=DIPB, B=DDAC",2048
same,"QA end point concentration, A alone","Pycnoporus coccineus; Ex 7, A=DIPB, B=DDAC",256
same,MIC,Pycnoporus coccineus; [8],2048
same,MIC,Trametes versicolor; Ex 7,256 ppm
same,"QA end point concentration, A alone","Trametes versicolor; Ex 7, A=DIPB, B=DDAC",2048
same,MIC,Tyromyces palustris [4]; Ex 7,1024 ppm
same,"QA end point concentration, A alone","Tyromyces palustris [4]; Ex 7, A=DIPB, B=DDAC",1024
same,Mass loss %,Coniophora puteana; retention 0.1% w b.a.e.,56.25%
same,Mass loss %,Coniophora puteana; retention 0.2% w b.a.e.,47.62%
same,Mass loss %,Coniophora puteana; retention 0.4% w b.a.e,27.93%
same,Mass loss %,Coniophora puteana; retention 0.8% w b.a.e,4.64%
same,Mass loss %,[1]; retention 0.1% w b.a.e.,32.95%
same,Mass loss %,[1]; retention 0.2% w b.a.e.,34.58%
same,Mass loss %,[1]; retention 0.4% w b.a.e,10.09%
same,Mass loss %,[1]; retention 0.8% w b.a.e,0.29%
same,Mass loss %,Tyromyces palustris [2]; retention 0.1% w b.a.e.,22.55%
same,Mass loss %,Tyromyces palustris [2]; retention 0.2% w b.a.e.,26.55%
same,Mass loss %,Tyromyces palustris [2]; retention 0.4% w b.a.e,21.33%
same,Mass loss %,Tyromyces palustris [2]; retention 0.8% w b.a.e,0.86%
same,rate of boron leaching,[5]; analysis of the lap joints each year,significantly lower than boric acid
same,efficacy compared to boric acid,[5]; weather exposed lap joints,superior efficacy
